The source of these data is patent US10179770B2, “Quinolines derivatives as novel anticancer agents” (GENOSCIENCE PHARMA, priority 2013, dated 2019).

A word on the EC50: it is the concentration giving half of the maximal effect. Broadly, the GI50 is the concentration that inhibits growth by half. Read a high GI50 as less potent growth inhibition. For orientation: TGI means the concentration at which net growth stops.

One assay concerns HT29 cells. Briefly: Combination study with standard chemotherapy agents, Combination Index (Chou and Talalay). The format is cell-based, human. To be noted: preliminary results. As for the experimental part:
Anticancer drugs were tested around their EC50 in […] cell line, The general assay procedure is the same as described in example 53 for compound XIX-3. Loewe additivity model: The experimental data are analyzed by using CalcuSyn (Biosoft, Stapleford, UK), a computer program based on the method of Chou and Talalay. Briefly, the dose-effect curves for each drug or drug combination were converted to median-effect plots with CalcuSyn. Then, a combination index (CI) value for each experimental combination was calculated on the basis of the following equation: [formula] Where for n=2 (combination of 2 compounds): D1 and D2 are the doses of drug 1 and drug 2 that have x effect when each drug is used alone d1 and d2 are the doses of drug 1 and drug 2 that have the same x effect when they are used in combination. [table] [table]

Another assay deals with Capan-1. Nature of the assay: Cell viability assay, pancreatic cancer cell lines. The format is cell-based. The settings on record: Homo sapiens; Capan-1 (Pancreas); 48 h.
The test system of another assay is OVCAR-4. Briefly: NCI-60 screen (SRB). The format is cell-based. The settings on record: OVCAR-4 (Ovarian). An outline of the steps: (§1)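 Growth was measured as SRB-stained cellular protein after 48 h drug exposure in RPMI 1640 with 5% serum. Percentage growth relative to time-zero and control gave GI50, TGI (Ti = Tz) and LC50 (50% protein loss from start).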
Another assay deals with RPMI-8226. Nature of the assay: NCI-60 screen (SRB). The format is cell-based. The settings on record: RPMI-8226 (Leukemia). An outline of the steps:
as §1

For a further assay, the system named is HL-60. Nature of the assay: NCI-60 screen (SRB). In kind it is cell-based. To be noted: HL-60 (Leukemia). The method in brief:
as §1

Setting [1] is: Homo sapiens, read-out: LC50 (the source's name).

Molecules are shown by their SMILES.

On to `CCN(CC)C1CCN(C(C)c2cc(-c3ccccc3)nc3ccccc23)CC1.Cl.Cl` (stereo not drawn) [XIX-3, 2-phenyl-4-{1-[4-(N,N-diethylamino)piperidin-1-yl]-eth-1-yl}quinoline dihydrochloride], for which, in the assay on HT29 cells (HT29 cells), the “Combination effect with standard chemotherapy agents” value is reported as “Synergy Effect”. The “Combination Index (CI)” value in the assay with HT29 cells (XIX-3 at 18 μM in combination with well described anticancer drugs, HT-29) is listed as under 1. Besides, the EC50 with Capan-1 came out at 27 µM. The GI50 in the assay with OVCAR-4 (Homo sapiens) turned out to be 11 µM; in the assay on RPMI-8226 (Homo sapiens), 2000 nM; in the assay with HL-60 (Homo sapiens) it was 17 µM. Also, the results for the CC50 in the assay on OVCAR-4 (setting [1]), in the assay with RPMI-8226 (setting [1]) and in the assay on HL-60 (setting [1]) were 52 µM, 26 µM and 66 µM, respectively. The TGI is 24 µM with OVCAR-4, 5 µM in the assay on RPMI-8226 and 33 µM in the assay on HL-60. The “Growth percent at 10 μM” value is given as “++ (cell growth 40 > % < 60)” in the assay with OVCAR-4 (10 μM), “++++ (cell growth % < 20)” with RPMI-8226 (10 μM) and “++ (cell growth 40 > % < 60)” in the assay on HL-60 (10 μM).
